# Test results taken from US20090286744A1, “Treatment of asthma” (IMMUNEREGEN BIOSCINECES INC., priority 2005, published 2009).
# Ends that are not written are not given here.
# System: PARP-1
# Assay: Immunoblotting for PARP-1 in alveolar macrophages pre-treated with JP-8 and substance P
# Assay type: cell-based
# Details: PAM pre-treated with 8 ug/ml of JP-8 and substance P; 24 hours; immunoblotting (FIG. 1)
# Experimental: Alveolar macrophages (PAM) were pre-treated with 8 ug/ml of JP-8 and substance P, or left untreated. After 24 hours, protein was extracted from the PAM and analyzed by immunoblotting for PARP-1, procaspase-3, p53, and GAPDH.
substance,measurement,value
Substance P (RPKPQQFFGLM-NH2; listed as Homo sapiens),PARP-1 expression in alveolar macrophages,causes degradation of PARP-1 expression in alveolar macrophages in a dose-dependent manner
